Consider ten molecules from PMC9794698, “Structure optimization of new tumor-selective Passerini α-acyloxy carboxamides as Caspase-3/7 activators” (Scientific Reports, 2022).

Data set [1] concerns HepG-2 cells. Kind of data set: MTT cytotoxicity assay, liver cancer cells. The format is cell-based, human. The conditions noted are these: for IC50: Homo sapiens, HepG2, MTT, 72 h, mean ± SEM, read-out: HepG-2 IC50; for HepG-2 SI: ratio of IC50 against normal cells (Wi-38) to IC50 against HepG-2. As to the method: (§1) Wi-38, Caco-2 and HepG-2 cells were cultured in DMEM medium-contained 10% FBS, seeded as 5 × 10^3 cells per well in 96-well cell culture plate and incubated at 37 °C in 5% CO2 incubator. After 24 h, serial concentrations of the test compounds were incubated with cells for 72 h. Cell viability was assayed via MTT protocol[27] (Supplementary data). IC50 values of the synthesized compounds were measured via the Graphpad Instat software. Morphological changes were examined using phase contrast inverted microscope with a digital camera (Olympus, Japan). […]
(§2) Normal human lung fibroblast Wi-38 cell line was used to detect cytotoxicity of the studied compounds.
(§3) Wi-38 cell line was cultured in DMEM medium-contained 10% fetal bovine serum (FBS), seeded as 5x10^3 cells per well in 96-well cell culture plate and incubated at 37 °C in 5% CO2 incubator. After 24 h for cell attachment, serial concentrations of the synthetic compounds and standard chemotherapy (5-fluorouracil) were incubated with Wi-38 cells for 72 h. Cell viability was assayed by MTT method Twenty microliters of 5 mg/ml MTT (Sigma, USA) was added to each well and the plate was incubated at 37 °C for 3 h. Then MTT solution was removed, 100 µl DMSO was added, and the absorbance of each well was measured with a microplate reader (BMG LabTech, Germany) at 570 nm. The dose (EC50 and EC100) values (at 50% and100% cell viability, respectively) of the tested compounds was estimated by the Graphpad Instat software.
(§4) The anticancer effect of the above-mentioned compounds was assayed using human colon cancer cell line (Caco-2) and liver cancer cell line (HepG-2) that were cultured in DMEM (Lonza, USA) supplemented with 10%
(§5) FBS. All cancer cells (5x10^3 cells/well) were seeded in sterile 96-well plates. After 24h, serial concentrations of the tested compounds and 5-fluorouracil (Fu) were incubated with two cancer cell lines for 72 h at 37 °C in 5% CO2 incubator. MTT method was done as described above. The half maximal inhibitory concentration (IC50) values were calculated using the Graphpad Instat software. Furthermore, cellular morphological changes before […]
(§6) contrast inverted microscope with a digital camera (Olympus, Japan).

Data set [2] has as its system Wi-38 cells. The experiment in a line: MTT cytotoxicity assay, normal human fibroblasts. The format is cell-based. As to conditions: 72 h, mean ± SEM; for MNTC: dose at 100% cell viability, read-out: Wi-38 EC100. As to the method: as §1, §2
as §3, with “software. […]” for “software.”
(In general: Tetrazolium assays rely on reduction of a dye to a coloured formazan, in cell work by metabolically active cells.)

Data set [3] has as its system Caco-2 cells. Kind of data set: MTT cytotoxicity assay, colorectal cancer cells. The class given is cell-based, human. The conditions noted are these: for IC50: Homo sapiens, Caco-2, MTT, 72 h, mean ± SEM, read-out: Caco-2 IC50 (converted); for Caco-2 SI: ratio of IC50 against normal cells (Wi-38) to IC50 against Caco-2. As to the method:
as §1, §2, §3, §4, §5, §6

As usually defined, the IC50 is the concentration at which inhibition is half-maximal. Usually melting point stands for the temperature, or range, at which the solid turns liquid. The molecule `CCOC(=O)c1ccc(NC(=O)C2(OC(=O)C=Cc3ccc(C(F)(F)F)cc3)CCCCC2)cc1` [7h, Ethyl-4-(1-((3-(4-(trifluoromethyl)phenyl)acryloyl)oxy)cyclohexanecarboxamido)benzoate] came in with a melting point of 145 to 147 °C. Moreover, in data set [1], the IC50 is 259 ± 73 nM and the “HepG-2 SI” value amounted to 72.111. Further, in data set [2], the MNTC was found to be 1650 ± 39 nM and the IC50 came out at 18700 ± 2040 nM. For the same molecule, in data set [3], the 50% inhibitory concentration (IC50) is 138 ± 14 nM and the “Caco-2 SI” value turned out to be 135.340.
The molecule `CCOC(=O)c1ccc(NC(=O)C2(OC(=O)c3ccc4ccccc4n3)CCCCC2)cc1` [7b, 1-((4-(Ethoxycarbonyl)phenyl)carbamoyl)cyclohexyl quinoline-2-carboxylate] registered a melting point of 103 to 105 °C. For the same molecule, in data set [1], the IC50 was determined as 228 ± 27 nM and the “HepG-2 SI” value amounted to 79.736. Besides, in data set [2], the MNTC came out at 1790 ± 111 nM and 18200 ± 2220 nM corresponded to half-maximal inhibition (IC50). For the same molecule, in data set [3], the IC50 is 172 ± 22 nM and the “Caco-2 SI” value amounted to 105.697.
For the molecule `CCOC(=O)c1ccc(NC(=O)C2(OC(=O)c3ccccc3)CCCCC2)cc1` [7c, Ethyl-4-(1-(benzoyloxy)cyclohexanecarboxamido)benzoate], the melting point fell in the range of 140 to 142 °C. In data set [1], the IC50 is 184 ± 9 nM and the “HepG-2 SI” value was determined as 41.864. Besides, in data set [2], the MNTC was 2100 ± 92 nM and the IC50 amounted to 7700 ± 321 nM. Besides, in data set [3], the IC50 was 276 ± 34 nM and the “Caco-2 SI” value was 27.909.
`CCOC(=O)c1ccc(NC(=O)C2(O)CCCCC2)cc1` [compound 9, Ethyl 4-(1-hydroxycyclohexanecarboxamido)benzoate] gave a melting point of 160 to 163 °C. Further, in data set [1], the half-maximal inhibitory concentration (IC50) amounted to 150 ± 4 nM and the “HepG-2 SI” value amounted to 112.186. In data set [2], the MNTC is 3220 ± 217 nM and 16800 ± 3010 nM corresponded to half-maximal inhibition (IC50). Besides, in data set [3], the IC50 is 154 ± 7 nM and the “Caco-2 SI” value is on record as 109.272.
`CCOC(=O)c1ccc(N2C(=O)OC3(CCCCC3)C2=O)cc1` [compound 11, Ethyl-4-(2,4-dioxo-1-oxa-3-azaspiro[4.5]decan-3-yl)benzoate] showed a melting point of 143 to 145 °C. Further, in data set [1], the IC50 was 209 ± 17 nM and the “HepG-2 SI” value worked out at 47.468. In addition, in data set [2], the MNTC was determined as 4940 ± 1540 nM and it took 9920 ± 1610 nM to reach half-maximal inhibition (IC50). Besides, in data set [3], the IC50 was 239 ± 71 nM and the “Caco-2 SI” value was determined as 41.510.
Molecule `CCOC(=O)c1ccc(NC(=O)C2(OC(=O)c3ccccc3Cl)CCCCC2)cc1` [7e, 1-((4-(Ethoxycarbonyl)phenyl)carbamoyl)cyclohexyl 2-chlorobenzoate] returned a melting point of 130 to 132 °C. In data set [1], the IC50 came to 130 ± 9 nM and the “HepG-2 SI” value worked out at 151.938. In data set [2], the MNTC was found to be 1780 ± 169 nM and the IC50 came to 19800 ± 1020 nM. For the same molecule, in data set [3], the half-inhibitory concentration (IC50) was 117 ± 10 nM and the “Caco-2 SI” value came out at 168.820.
On to `CCOC(=O)c1ccc(NC(=O)C2(OC(=O)c3ccccc3I)CCCCC2)cc1` [7f, 1-((4-(Ethoxycarbonyl)phenyl)carbamoyl)cyclohexyl 2-iodobenzoate], for which the melting point fell in the range of 148 to 150 °C. In data set [1], the IC50 stood at 147 ± 46 nM and the “HepG-2 SI” value came to 116.020. In data set [2], the MNTC was 967 ± 26 nM and 17100 ± 1690 nM corresponded to half-maximal inhibition (IC50). Moreover, in data set [3], the concentration for half-maximal inhibition (IC50) is 129 ± 28 nM and the “Caco-2 SI” value worked out at 132.209.
`CCOC(=O)c1ccc(NC(=O)C2(OC(=O)CNC(=O)c3ccc(NC(=O)OC(C)(C)C)cc3)CCCCC2)cc1` [7i, Ethyl-4-(1-(2-(4-((tert-butoxycarbonyl)amino)benzamido)acetoxy)cyclohexanecarboxamido) benzoate] displayed a melting point of 115 to 117 °C. Moreover, in data set [1], the IC50 worked out at 127 ± 44 nM and the “HepG-2 SI” value was 179.566. Besides, in data set [2], the MNTC was 1630 ± 259 nM and the IC50 came to 22800 ± 3100 nM. In data set [3], the IC50 is 132 ± 50 nM and the “Caco-2 SI” value came out at 172.765.
`CCOC(=O)c1ccc(NC(=O)C2(OC(=O)c3ccc(Cl)cc3)CCCCC2)cc1` [7d, 1-((4-(Ethoxycarbonyl)phenyl)carbamoyl)cyclohexyl 4-chlorobenzoate] returned a melting point of 193 to 195 °C. In addition, in data set [1], the IC50 is 407 ± 16 nM and the “HepG-2 SI” value turned out to be 60.830. Besides, in data set [2], the MNTC came out at 1700 ± 165 nM and half-maximal inhibition (IC50) required 24800 ± 10200 nM. In addition, in data set [3], the IC50 is 201 ± 19 nM and the “Caco-2 SI” value is 123.174.
Consider `CCOC(=O)c1ccc(NC(=O)C2(OC(=O)CS)CCCCC2)cc1` [7k, Ethyl-4-(1-(2-mercaptoacetoxy)cyclohexane-1-carboxamido)benzoate], for which the melting point fell in the range of 108 to 110 °C. Further, in data set [1], the IC50 is 141 nM and the “HepG-2 SI” value was 68.567. Besides, in data set [2], the MNTC was determined as 1465 ± 10 nM and the half-maximal inhibitory concentration (IC50) came to 9670 ± 102 nM. Moreover, in data set [3], the IC50 is 140 ± 3 nM and the “Caco-2 SI” value was 69.057.
